In brackets after ≈: the same amount, converted by molar mass. Activity calls are given as the source filed them. The calls are words filed in the database; no cut-off is given here.
Tests used:
Burkholderia cepacia [1] = experiment: Antimicrobial activity against Burkholderia cepacia BIG 118 after 18 hrs by micro dilution method; type: functional; details: BIG 118, 18 h
Staphylococcus aureus [2] = experiment: Antimicrobial activity against Staphylococcus aureus (Oxford) NCTC 6571 after 18 hrs by micro dilution method; type: functional; details: (Oxford) NCTC 6571, 18 h
Burkholderia cepacia [3] = experiment: Ratio of compound MIC to ciprofloxacin MIC for Burkholderia cepacia BIG 119 after 18 hrs by micro dilution method; type: functional
Burkholderia cepacia [4] = experiment: Antimicrobial activity against Burkholderia cepacia BIG 117 after 18 hrs by micro dilution method; type: functional; details: BIG 117, 18 h
[5] = system: Staphylococcus epidermidis; experiment: Antimicrobial activity against Staphylococcus epidermidis NCTC 11047 after 18 hrs by micro dilution method; type: functional; details: NCTC 11047, 18 h
Burkholderia cepacia [6] = experiment: Antimicrobial activity against Burkholderia cepacia BIG 120 after 18 hrs by micro dilution method; type: functional; details: BIG 120, 18 h
[7] = Inhibition of DNA gyrase (unknown origin) assessed as reduction in supercoiled form of DNA at 20 uM using ethidium bromide staining by gel electrophoresis
[8] = system: Staphylococcus epidermidis; experiment: Antimicrobial activity against Staphylococcus epidermidis NCTC 2749 after 18 hrs by micro dilution method; type: functional; details: NCTC 2749, 18 h
Pseudomonas aeruginosa [9] = experiment: Ratio of compound MIC to ciprofloxacin MIC for Pseudomonas aeruginosa NCTC 10662 after 18 hrs by micro dilution method; type: functional
[10] = system: Staphylococcus haemolyticus; experiment: Antimicrobial activity against Staphylococcus haemolyticus NCTC 11042 after 18 hrs by micro dilution method; type: functional; details: NCTC 11042, 18 h
Burkholderia cepacia [11] = experiment: Ratio of compound MIC to ciprofloxacin MIC for Burkholderia cepacia BIG 120 after 18 hrs by micro dilution method; type: functional
Staphylococcus aureus [12] = experiment: Ratio of compound MIC to ciprofloxacin MIC for Staphylococcus aureus BIG 52 after 18 hrs by micro dilution method; type: functional
Pseudomonas aeruginosa [13] = experiment: Antimicrobial activity against Pseudomonas aeruginosa BIG 63 after 18 hrs by micro dilution method; type: functional; details: BIG 63, 18 h
Burkholderia cepacia [14] = experiment: Antimicrobial activity against Burkholderia cepacia BIG 121 after 18 hrs by micro dilution method; type: functional; details: BIG 121, 18 h
[15] = system: Stenotrophomonas maltophilia; experiment: Antimicrobial activity against Stenotrophomonas maltophilia N1119 after 18 hrs by micro dilution method; type: functional; details: N1119, 18 h
Escherichia coli [16] = experiment: Antimicrobial activity against Escherichia coli NCTC 10418 after 18 hrs by micro dilution method; type: functional; details: NCTC 10418, 18 h
Pseudomonas aeruginosa [17] = experiment: Antimicrobial activity against Pseudomonas aeruginosa BIG 37 clinical isolate after 18 hrs by micro dilution method; type: functional; details: BIG 37, 18 h
Pseudomonas aeruginosa [18] = experiment: Ratio of compound MIC to ciprofloxacin MIC for Pseudomonas aeruginosa BIG 63 after 18 hrs by micro dilution method; type: functional
[19] = system: Stenotrophomonas maltophilia; experiment: Ratio of compound MIC to ciprofloxacin MIC for Stenotrophomonas maltophilia N1124 after 18 hrs by micro dilution method; type: functional
Staphylococcus aureus [20] = experiment: Ratio of compound MIC to ciprofloxacin MIC for Staphylococcus aureus (Oxford) NCTC 6571 after 18 hrs by micro dilution method; type: functional
Staphylococcus aureus [21] = experiment: Antimicrobial activity against Staphylococcus aureus HG-1 after 18 hrs by micro dilution method; type: functional; details: HG-1, 18 h
Burkholderia cepacia [22] = experiment: Ratio of compound MIC to ciprofloxacin MIC for Burkholderia cepacia BIG 9 NCTC 10744 after 18 hrs by micro dilution method; type: functional
Burkholderia cepacia [23] = experiment: Ratio of compound MIC to ciprofloxacin MIC for Burkholderia cepacia BIG 117 after 18 hrs by micro dilution method; type: functional
Pseudomonas aeruginosa [24] = experiment: Ratio of compound MIC to ciprofloxacin MIC for Pseudomonas aeruginosa environmental isolate after 18 hrs by micro dilution method; type: functional
[25] = system: Staphylococcus haemolyticus; experiment: Ratio of compound MIC to ciprofloxacin MIC for Staphylococcus haemolyticus NCTC 11042 after 18 hrs by micro dilution method; type: functional
Staphylococcus aureus [26] = experiment: Ratio of compound MIC to ciprofloxacin MIC for Staphylococcus aureus NCTC 13142 after 18 hrs by micro dilution method; type: functional
[27] = system: Staphylococcus epidermidis; experiment: Ratio of compound MIC to ciprofloxacin MIC for Staphylococcus epidermidis NCTC 2749 after 18 hrs by micro dilution method; type: functional
Serratia marcescens [28] = experiment: Ratio of compound MIC to ciprofloxacin MIC for Serratia marcescens BIG 11 NCTC 1377 after 18 hrs by micro dilution method; type: functional
Staphylococcus aureus [29] = experiment: Antimicrobial activity against Staphylococcus aureus BIG 52 after 18 hrs by micro dilution method; type: functional; details: BIG 52, 18 h
Escherichia coli [30] = experiment: Ratio of compound MIC to ciprofloxacin MIC for Escherichia coli NCTC 10418 after 18 hrs by micro dilution method; type: functional
Burkholderia cepacia [31] = experiment: Ratio of compound MIC to ciprofloxacin MIC for Burkholderia cepacia BIG 118 after 18 hrs by micro dilution method; type: functional
Serratia marcescens [32] = experiment: Antimicrobial activity against Serratia marcescens BIG 11 NCTC 1377 after 18 hrs by micro dilution method; type: functional; details: BIG 11 NCTC 1377, 18 h
[33] = system: Stenotrophomonas maltophilia; experiment: Antimicrobial activity against Stenotrophomonas maltophilia N1124 after 18 hrs by micro dilution method; type: functional; details: N1124, 18 h
Staphylococcus aureus [34] = experiment: Antimicrobial activity against Staphylococcus aureus NCTC 13142 after 18 hrs by micro dilution method; type: functional; details: NCTC 13142, 18 h
Pseudomonas aeruginosa [35] = experiment: Antimicrobial activity against Pseudomonas aeruginosa environmental isolate BIG 39 after 18 hrs by micro dilution method; type: functional; details: BIG 39, 18 h
Escherichia coli [36] = experiment: Antimicrobial activity against Escherichia coli BIG 0046 after 18 hrs by micro dilution method; type: functional; details: BIG 0046, 18 h
[37] = system: Stenotrophomonas maltophilia; experiment: Antimicrobial activity against Stenotrophomonas maltophilia N1127 after 18 hrs by micro dilution method; type: functional; details: N1127, 18 h
Pseudomonas aeruginosa [38] = experiment: Ratio of compound MIC to ciprofloxacin MIC for Pseudomonas aeruginosa BIG 37 clinical isolate after 18 hrs by micro dilution method; type: functional
Pseudomonas aeruginosa [39] = experiment: Antimicrobial activity against Pseudomonas aeruginosa NCTC 10662 after 18 hrs by micro dilution method; type: functional; details: NCTC 10662, 18 h
[40] = system: Staphylococcus epidermidis; experiment: Ratio of compound MIC to ciprofloxacin MIC for Staphylococcus epidermidis NCTC 11047 after 18 hrs by micro dilution method; type: functional
Burkholderia cepacia [41] = experiment: Antimicrobial activity against Burkholderia cepacia BIG 9 NCTC 10744 after 18 hrs by micro dilution method; type: functional; details: BIG 9 NCTC 10744, 18 h
[42] = system: Stenotrophomonas maltophilia; experiment: Ratio of compound MIC to ciprofloxacin MIC for Stenotrophomonas maltophilia N1127 after 18 hrs by micro dilution method; type: functional
Burkholderia cepacia [43] = experiment: Antimicrobial activity against Burkholderia cepacia BIG 119 after 18 hrs by micro dilution method; type: functional; details: BIG 119, 18 h
Staphylococcus aureus [44] = experiment: Antimicrobial activity against Staphylococcus aureus NCTC 13143 after 18 hrs by micro dilution method; type: functional; details: NCTC 13143, 18 h
[45] = Inhibition of DNA gyrase (unknown origin) assessed as reduction in supercoiled form of DNA at 5 to 20 uM using ethidium bromide staining by gel electrophoresis

Question: Which MIC (Burkholderia cepacia [1]) does the source give for `O=C(O)CC(O)(CC(=O)NCC(=O)N1CCN(c2cc3c(cc2F)c(=O)c(C(=O)O)cn3C2CC2)CC1)C(=O)O` (racemic) here?
Answer: The MIC was 8 µg/mL (≈ 14.2 µM).

Question: What about the MIC (Staphylococcus aureus [2]) of the same molecule?
Answer: Its MIC is 16 µg/mL (≈ 28.4 µM).

Question: What about the Ratio (Burkholderia cepacia [3]) of the same molecule?
Answer: The Ratio was 4.7.

Question: And the MIC (Burkholderia cepacia [4])?
Answer: The MIC was 8 µg/mL (≈ 14.2 µM).

Question: What about the MIC [5] of the same molecule?
Answer: The MIC was 16 µg/mL (≈ 28.4 µM).

Question: What about the MIC (Burkholderia cepacia [6]) of the same molecule?
Answer: Its MIC is 32 µg/mL (≈ 56.9 µM).

Question: What about the inhibition [7] of the same molecule?
Answer: Its inhibition is “Active”.

Question: And the MIC [8]?
Answer: Its MIC is 8 µg/mL (≈ 14.2 µM).

Question: What about the Ratio (Pseudomonas aeruginosa [9]) of the same molecule?
Answer: The Ratio was 4.72.

Question: And the MIC [10]?
Answer: Its MIC is 16 µg/mL (≈ 28.4 µM).

Question: What about the Ratio (Burkholderia cepacia [11]) of the same molecule?
Answer: The Ratio was 9.4.

Question: And the Ratio (Staphylococcus aureus [12])?
Answer: Its Ratio is 18.8.

Question: What about the MIC (Pseudomonas aeruginosa [13]) of the same molecule?
Answer: The MIC was 8 µg/mL (≈ 14.2 µM).

Question: And the MIC (Burkholderia cepacia [14])?
Answer: The MIC was greater than 36 µg/mL.

Question: And the MIC [15]?
Answer: The MIC was greater than 36 µg/mL.

Question: What about the MIC (Escherichia coli [16]) of the same molecule?
Answer: The MIC was 0.125 µg/mL (≈ 0.222 µM).

Question: And the MIC (Pseudomonas aeruginosa [17])?
Answer: Its MIC is 16 µg/mL (≈ 28.4 µM).

Question: And the Ratio (Pseudomonas aeruginosa [18])?
Answer: The Ratio was 18.8.

Question: And the Ratio [19]?
Answer: The Ratio was 4.7.

Question: And the Ratio (Staphylococcus aureus [20])?
Answer: The Ratio was 37.6.

Question: And the MIC (Staphylococcus aureus [21])?
Answer: The MIC was greater than 36 µg/mL.

Question: And the Ratio (Burkholderia cepacia [22])?
Answer: Its Ratio is 9.4.

Question: And the Ratio (Burkholderia cepacia [23])?
Answer: The Ratio was 4.7.

Question: What about the Ratio (Pseudomonas aeruginosa [24]) of the same molecule?
Answer: The Ratio was 4.72.

Question: What about the Ratio [25] of the same molecule?
Answer: The Ratio was 75.3.

Question: What about the Ratio (Staphylococcus aureus [26]) of the same molecule?
Answer: Its Ratio is 18.8.

Question: What about the Ratio [27] of the same molecule?
Answer: The Ratio was 18.8.

Question: And the Ratio (Serratia marcescens [28])?
Answer: Its Ratio is 4.91.

Question: What about the MIC (Staphylococcus aureus [29]) of the same molecule?
Answer: Its MIC is 16 µg/mL (≈ 28.4 µM).

Question: And the Ratio (Escherichia coli [30])?
Answer: The Ratio was 1.23.

Question: What about the Ratio (Burkholderia cepacia [31]) of the same molecule?
Answer: The Ratio was 18.8.

Question: What about the MIC (Serratia marcescens [32]) of the same molecule?
Answer: Its MIC is 0.5 µg/mL (≈ 0.889 µM).

Question: And the MIC [33]?
Answer: The MIC was 32 µg/mL (≈ 56.9 µM).

Question: What about the MIC (Staphylococcus aureus [34]) of the same molecule?
Answer: Its MIC is 16 µg/mL (≈ 28.4 µM).

Question: And the MIC (Pseudomonas aeruginosa [35])?
Answer: The MIC was 2 µg/mL (≈ 3.56 µM).

Question: And the MIC (Escherichia coli [36])?
Answer: The MIC was 36 µg/mL (≈ 64 µM).

Question: And the MIC [37]?
Answer: The MIC was 32 µg/mL (≈ 56.9 µM).

Question: What about the Ratio (Pseudomonas aeruginosa [38]) of the same molecule?
Answer: The Ratio was 4.7.

Question: What about the MIC (Pseudomonas aeruginosa [39]) of the same molecule?
Answer: The MIC was 2 µg/mL (≈ 3.56 µM).

Question: And the Ratio [40]?
Answer: Its Ratio is 75.3.

Question: And the MIC (Burkholderia cepacia [41])?
Answer: The MIC was 8 µg/mL (≈ 14.2 µM).

Question: And the Ratio [42]?
Answer: The Ratio was 9.4.

Question: What about the MIC (Burkholderia cepacia [43]) of the same molecule?
Answer: The MIC was 32 µg/mL (≈ 56.9 µM).

Question: What about the MIC (Staphylococcus aureus [44]) of the same molecule?
Answer: The MIC was greater than 36 µg/mL.

Question: What does the source list for `O=C(O)c1cn(C2CC2)c2cc(N3CCNCC3)c(F)cc2c1=O` [CIPROFLOXACIN]?
Answer: MIC (Burkholderia cepacia [1]): 0.25 µg/mL (≈ 0.754 µM); MIC (Staphylococcus aureus [2]): 0.25 µg/mL (≈ 0.754 µM); MIC (Burkholderia cepacia [4]): 1 µg/mL (≈ 3.02 µM); MIC [5]: 0.125 µg/mL (≈ 0.377 µM); MIC (Burkholderia cepacia [6]): 2 µg/mL (≈ 6.04 µM); MIC [8]: 0.25 µg/mL (≈ 0.754 µM); MIC [10]: 0.125 µg/mL (≈ 0.377 µM); MIC (Burkholderia cepacia [14]): 8 µg/mL (≈ 24.1 µM); MIC [15]: 1 µg/mL (≈ 3.02 µM); MIC (Staphylococcus aureus [21]): > 36 µg/mL; inhibition [45]: Active; MIC (Staphylococcus aureus [29]): 0.5 µg/mL (≈ 1.51 µM); MIC (Serratia marcescens [32]): 0.06 µg/mL (≈ 0.181 µM); MIC [33]: 4 µg/mL (≈ 12.1 µM); MIC (Staphylococcus aureus [34]): 0.5 µg/mL (≈ 1.51 µM); MIC (Escherichia coli [36]): > 36 µg/mL; MIC [37]: 2 µg/mL (≈ 6.04 µM); MIC (Burkholderia cepacia [41]): 0.5 µg/mL (≈ 1.51 µM); MIC (Burkholderia cepacia [43]): 4 µg/mL (≈ 12.1 µM); MIC (Staphylococcus aureus [44]): > 36 µg/mL

From ChEMBL document CHEMBL3351986, “Probing linker design in citric acid-ciprofloxacin conjugates” (2014)
